Legend:
Assay type in all cases: in vivo
[1] = tested on: cotton melon aphid (Aphis gossypii (Glover)); test: whole plant or invertebrate; details: 144 h, 6 days; for mortality at 50 ppm: 50 ppm spray; for mortality at 250 ppm: 250 ppm spray
Protocol: (§1) Formulation and Spray Methodology for Tests A-F
(§2) Test compounds were formulated using a solution containing 10% acetone, 90% water and 300 ppm X-77® Spreader Lo-Foam Formula non-ionic surfactant containing alkylarylpolyoxyethylene, free fatty acids, glycols and isopropanol (Loveland Industries, Inc. Greeley, Colo., USA). The formulated compounds were applied in 1 mL of liquid through a SUJ2 atomizer nozzle with 1/8 JJ custom body (Spraying Systems Co. Wheaton, Ill., USA) positioned 1.27 cm (0.5 inches) above the top of each test unit. Test compounds were sprayed at the rates indicated, and each test was replicated three times.
For evaluating control of cotton melon aphid (Aphis gossypii (Glover)) through contact and/or systemic means, the test unit consisted of a small open container with a 6-7-day-old cotton plant inside. This was pre-infested with 30-40 insects on a piece of leaf according to the cut-leaf method, and the soil of the test unit was covered with a layer of sand.
Test compounds were formulated and sprayed at 250 and/or 50 ppm. After spraying, the test units were maintained in a growth chamber for 6 days at 19° C. and 70% relative humidity. Each test unit was then visually assessed for insect mortality.

[2] = tested on: green peach aphid (Myzus persicae (Sulzer)); test: whole plant or invertebrate; details: in Raphanus sativus, 144 h, 6 days; for mortality at 50 ppm: 50 ppm spray; for mortality at 250 ppm: 250 ppm spray
Protocol: as §1, §2
For evaluating control of green peach aphid (Myzus persicae (Sulzer)) through contact and/or systemic means, the test unit consisted of a small open container with a 12-15-day-old radish plant inside. This was pre-infested by placing on a leaf of the test plant 30-40 aphids on a piece of leaf excised from a culture plant (cut-leaf method). The aphids moved onto the test plant as the leaf piece desiccated. After pre-infestation, the soil of the test unit was covered with a layer of sand.
Test compounds were formulated and sprayed at 250 and/or 50 ppm. After spraying of the formulated test compound, each test unit was allowed to dry for 1 hour and then a black, screened cap was placed on top. The test units were held for 6 days in a growth chamber at 19-21° C. and 50-70% relative humidity. Each test unit was then visually assessed for insect mortality.

[3] = tested on: sweetpotato whitefly (Bemisia tabaci (Gennadius)); test: whole plant or invertebrate; details: in Gossypium hirsutum, 312 h, 13 days; for mortality at 250 ppm: 250 ppm spray; for mortality at 50 ppm: 50 ppm spray
Protocol: as §1, §2
For evaluating control of the sweetpotato whitefly (Bemisia tabaci (Gennadius)) through contact and/or systemic means, the test unit consisted of a small open container with a 12-14-day-old cotton plant inside. Prior to the spray application, both cotyledons were removed from the plant, leaving one true leaf for the assay. Adult whiteflies were allowed to lay eggs on the plant and then were removed from the test unit. Cotton plants infested with at least 15 eggs were submitted to the test for spraying.
Test compounds were formulated and sprayed at 250 and/or 50 ppm. After spraying, the test units were allowed to dry for 1 hour. The cylinders were then removed, and the units were taken to a growth chamber and held for 13 days at 28° C. and 50-70% relative humidity. Each test unit was then visually assessed for insect mortality.

[4] = tested on: Western Flower Thrips (Frankliniellla occidentalis (Pergande)); test: Test F: control of Western Flower Thrips on Soleil bean plant, contact and/or systemic, spray; details: 50 ppm spray; 6 days; very good to excellent control; criterion is plant damage and/or 100% mortality
Protocol: as §1, §2
For evaluating control of the Western Flower Thrips (Frankliniellla occidentalis (Pergande)) through contact and/or systemic means, the test unit consisted of a small open container with a 5-7-day-old Soleil bean plant inside.
Test compounds were formulated and sprayed at 250 and/or 50 ppm. After spraying, the test units were allowed to dry for 1 hour, and then 22-27 adult thrips were added to each unit. A black, screened cap was placed on top, and the test units were held for 6 days at 25° C. and 45-55% relative humidity.

`COC(=O)C(C)(C)NC(=O)c1nnc(-c2ccc3nn(-c4cccnc4)cc3c2)s1` [Compound 128, 2-methyl-N-[[5-[2-(3-pyridinyl)-2H-indazol-5-yl]-1,3,4-thiadiazol-2-yl]carbonyl]alanine methyl ester] was tested, and the mortality at 50 ppm [1] was no less than 80%.
`COC(=O)C(C)(C)NC(=O)c1nnc(-c2ccc3nn(-c4cccnc4)cc3c2)o1` [Compound 105, 2-methyl-N-[[5-[2-(3-pyridinyl)-2H-indazol-5-yl]-1,3,4-oxadiazol-2-yl]carbonyl]alanine methyl ester] showed a mortality at 50 ppm [1] of no less than 80%.
With `O=C(NCc1ncccn1)c1ncsc1-c1ccc2nn(-c3cccnc3)cc2c1` [Compound 78, 5-[2-(3-pyridinyl)-2H-indazol-5-yl]-N-(2-pyrimidinylmethyl)-4-thiazolecarboxamide] the mortality at 50 ppm [2] was no less than 80%, the mortality at 250 ppm [2] was no less than 80% and the mortality at 50 ppm [1] was no less than 80%.
`NC(=O)C1(NC(=O)c2cc(-c3ccc4nn(-c5cccnc5)cc4c3)ccn2)CC1` [Compound 86, N-[1-(aminocarbonyl)cyclopropyl]-4-[2-(3-pyridinyl)-2H-indazol-5-yl]-2-pyridinecarboxamide] gave a mortality at 50 ppm [2] of no less than 80% and a mortality at 50 ppm [1] of no less than 80%.
In the case of `O=C(NCCO)c1cccc(-c2ccc3nn(-c4cccnc4)cc3c2)c1` [Compound 31, N-(2-hydroxyethyl)-3-[2-(3-pyridinyl)-2H-indazol-5-yl]benzamide], the mortality at 50 ppm [2] was no less than 80%, the mortality at 250 ppm [2] was no less than 80% and the mortality at 50 ppm [1] was no less than 80%. For the same compound, the mortality at 250 ppm [1] was no less than 80%.
`O=C(NC1CCOCC1)c1csc(-c2ccc3nn(-c4cccnc4)cc3c2)n1` [Compound 64, 2-[2-(3-pyridinyl)-2H-indazol-5-yl]-N-(tetrahydro-2H-pyran-4-yl)-4-thiazolecarboxamide] gave a mortality at 50 ppm [2] of no less than 80%, a mortality at 250 ppm [2] of no less than 80% and a mortality at 50 ppm [1] of no less than 80%. The mortality at 250 ppm [1] was no less than 80% and the mortality at 250 ppm [3] was no less than 50%.
`CC(C)(C#N)NC(=O)c1coc(-c2ccc3nn(-c4cccnc4)cc3c2)n1` [Compound 155, N-(1-cyano-1-methylethyl)-2-[2-(3-pyridinyl)-2H-indazol-5-yl]-4-oxazolecarboxamide] was tested, and the mortality at 50 ppm [2] was no less than 80% and the mortality at 50 ppm [1] was no less than 80%.
`COC(CNC(=O)c1cccc(-c2ccc3nn(-c4cccnc4)cc3c2)c1)OC` [Compound 25, N-(2,2-dimethoxyethyl)-3-[2-(3-pyridinyl)-2H-indazol-5-yl]benzamide] was tested, and the mortality at 50 ppm [2] was no less than 80%, the mortality at 250 ppm [2] was no less than 80% and the mortality at 50 ppm [1] was no less than 80%. It also gave a mortality at 250 ppm [1] of no less than 80%, a mortality at 50 ppm [3] of no less than 50% and a mortality at 250 ppm [3] of no less than 50%.
Compound `CNC(=O)C1(NC(=O)c2cc(-c3ccc4nn(-c5cccnc5)cc4c3)ccn2)CC1` [Compound 85, N-[1-[(methylamino)carbonyl]cyclopropyl]-4-[2-(3-pyridinyl)-2H-indazol-5-yl]-2-pyridinecarboxamide] has a mortality at 50 ppm [2] of no less than 80% and a mortality at 50 ppm [1] of no less than 80%.
For `COC(CNC(=O)c1ccc(-c2ccc3nn(-c4cccnc4)cc3c2)c(Cl)c1)OC` [Compound 18], the “control efficacy: plant damage (30% or less plant damage and/or 100% mortality)” value [4] was no more than 30%.
`CNC(=O)COc1cccc(-c2ccc3nn(-c4cccnc4)cc3c2)c1` [Compound 102, N-methyl-2-[3-[2-(3-pyridinyl)-2H-indazol-5-yl]phenoxy]acetamide] was tested, and the mortality at 50 ppm [2] was no less than 80%, the mortality at 50 ppm [1] was no less than 80% and the mortality at 50 ppm [3] was no less than 50%. The mortality at 250 ppm [3] was no less than 50%.
`CN(C)C(=O)C1(NC(=O)c2cc(-c3ccc4nn(-c5cccnc5)cc4c3)ccn2)CC1` [Compound 87, N-[1-[(dimethylamino)carbonyl]cyclopropyl]-4-[2-(3-pyridinyl)-2H-indazol-5-yl]-2-pyridinecarboxamide] was tested, and the mortality at 50 ppm [2] was no less than 80% and the mortality at 50 ppm [1] was no less than 80%.

From US11339154B2, “Heterocycle-substituted bicyclic azole pesticides” (FMC Corporation, priority 2016, dated 2022)
